Laboratory results published in patent US6054435A, “6-O-substituted macrolides having antibacterial activity” (priority 1999, dated 2000).
Converted amounts (≈) assume the structure as drawn.

Columns and labels:
Test in all cases: in vitro antibacterial activity (MIC), agar dilution
Type in all cases: cell-based
Candida albicans CCH 442 = settings: organism code TT; BHI agar, 35-37° C., 20 to 24 hours; unit assumed
Procedure, shortened: (§1)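 Agar dilution on BHI agar with twelve successive compound dilutions; plates inoculated by Steers replicator with 1:100 culture dilutions (1:10 for slow growers such as Streptococcus). MIC is the lowest concentration giving no growth, slight haze or sparse colonies versus a drug-free control.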

[1] = system: Enterococcus faecium ATCC 8043; settings: organism code II; BHI agar, 35-37° C., 20 to 24 hours; unit assumed
Procedure, shortened: as §1

Escherichia coli DC-2 = settings: organism code SS; BHI agar, 35-37° C., 20 to 24 hours; unit assumed
Procedure, shortened: as §1

Escherichia coli JUHL = settings: organism code QQ; BHI agar, 35-37° C., 20 to 24 hours; unit assumed
Procedure, shortened: as §1

Escherichia coli SS = settings: organism code RR; BHI agar, 35-37° C., 20 to 24 hours; unit assumed
Procedure, shortened: as §1

[2] = system: Haemophilis Influenzae DILL AMP R; settings: organism code WW; BHI agar, 35-37° C., 20 to 24 hours; unit assumed
Procedure, shortened: as §1

[3] = system: Micrococcus luteus ATCC 4698; settings: organism code PP; BHI agar, 35-37° C., 20 to 24 hours; unit assumed
Procedure, shortened: (§2)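 Agar dilution in BHI agar, twelve successive compound dilutions. Inoculum 1:100, or 1:10 for slow-growing strains (e.g. Streptococcus), replicator-spotted. Read by eye; MIC = lowest concentration with no growth, slight haze or sparsely isolated colonies relative to growth control.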

[4] = system: Micrococcus luteus ATCC 9341; settings: organism code OO; BHI agar, 35-37° C., 20 to 24 hours; unit assumed
Procedure, shortened: as §2

[5] = system: Mycobacterium smegmatis ATCC 114; settings: organism code UU; BHI agar, 35-37° C., 20 to 24 hours; unit assumed
Procedure, shortened: as §1

[6] = system: Nocardia Asteroides ATCC9970; settings: organism code VV; BHI agar, 35-37° C., 20 to 24 hours; unit assumed
Procedure, shortened: as §1

[7] = system: Staphylococcus aureus 1775; settings: organism code GG; BHI agar, 35-37° C., 20 to 24 hours; unit assumed
Procedure, shortened: as §1

[8] = system: Staphylococcus aureus A-5278; settings: organism code CC; BHI agar, 35-37° C., 20 to 24 hours; unit assumed
Procedure, shortened: as §1

[9] = system: Staphylococcus aureus A5177; settings: organism code BB; BHI agar, 35-37° C., 20 to 24 hours; unit assumed
Procedure, shortened: as §1

[10] = system: Staphylococcus aureus ATCC 6538P; settings: organism code AA; BHI agar, 35-37° C., 20 to 24 hours; unit assumed
Procedure, shortened: as §1

[11] = system: Staphylococcus aureus CMX 553; settings: organism code FF; BHI agar, 35-37° C., 20 to 24 hours; unit assumed
Procedure, shortened: as §1

[12] = system: Staphylococcus aureus CMX 642A; settings: organism code DD; BHI agar, 35-37° C., 20 to 24 hours; unit assumed
Procedure, shortened: as §1

[13] = system: Staphylococcus aureus NCTC10649M; settings: organism code EE; BHI agar, 35-37° C., 20 to 24 hours; unit assumed
Procedure, shortened: as §1

[14] = system: Staphylococcus epidermidis 3519; settings: organism code HH; BHI agar, 35-37° C., 20 to 24 hours; unit assumed
Procedure, shortened: as §1

[15] = system: Streptococcus Pneumonia 5649; settings: organism code ZZA; BHI agar, 35-37° C., 20 to 24 hours; unit assumed
Procedure, shortened: as §1

[16] = system: Streptococcus Pneumonia 5979; settings: organism code ZZ; BHI agar, 35-37° C., 20 to 24 hours; unit assumed
Procedure, shortened: as §1

[17] = system: Streptococcus Pneumonia ATCC6303; settings: organism code XX; BHI agar, 35-37° C., 20 to 24 hours; unit assumed
Procedure, shortened: as §1

[18] = system: Streptococcus Pneumonia GYR 1171; settings: organism code YY; BHI agar, 35-37° C., 20 to 24 hours; unit assumed
Procedure, shortened: as §1

[19] = system: Streptococcus agalactiae CMX 508; settings: organism code KK; BHI agar, 35-37° C., 20 to 24 hours; unit assumed
Procedure, shortened: as §1

[20] = system: Streptococcus bovis A-5169; settings: organism code JJ; BHI agar, 35-37° C., 20 to 24 hours; unit assumed
Procedure, shortened: as §1

[21] = system: Streptococcus pyogenes 930; settings: organism code MM; BHI agar, 35-37° C., 20 to 24 hours; unit assumed
Procedure, shortened: as §1

[22] = system: Streptococcus pyogenes EES61; settings: organism code LL; BHI agar, 35-37° C., 20 to 24 hours; unit assumed
Procedure, shortened: as §1

[23] = system: Streptococcus pyogenes PIU 2548; settings: organism code NN; BHI agar, 35-37° C., 20 to 24 hours; unit assumed
Procedure, shortened: as §1

Row | Structure (SMILES) | MIC (Candida albicans CCH 442) [µg/mL] | MIC [1] [µg/mL] | MIC (Escherichia coli DC-2) [µg/mL] | MIC (Escherichia coli JUHL) [µg/mL] | MIC (Escherichia coli SS) [µg/mL] | MIC [2] [µg/mL] | MIC [3] [µg/mL] | MIC [4] [µg/mL] | MIC [5] [µg/mL] | MIC [6] [µg/mL] | MIC [7] [µg/mL] | MIC [8] [µg/mL] | MIC [9] [µg/mL] | MIC [10] [µg/mL] | MIC [11] [µg/mL] | MIC [12] [µg/mL] | MIC [13] [µg/mL] | MIC [14] [µg/mL] | MIC [15] [µg/mL] | MIC [16] [µg/mL] | also measured
1 | CC[C@H]1OC(=O)[C@H](C)C(=O)[C@H](C)[C@@H](O[C@@H]2O[C@H](C)C[C@H](N(C)C)[C@H]2O)[C@](C)(OC/C=C/c2nc(-c3cccs3)cs2)C[C@@H](C)C(=O)[C@H](C)[C@H]2NC(=O)O[C@@]21C [Example 67] | > 100 | 0.05 (≈ 0.0622 µM) | > 100 | > 100 | 0.78 (≈ 0.97 µM) | 8 (≈ 9.95 µM) | 0.1 (≈ 0.124 µM) | 0.02 (≈ 0.0249 µM) | 0.39 (≈ 0.485 µM) | 0.1 (≈ 0.124 µM) | > 100 | > 100 | 0.1 (≈ 0.124 µM) | 0.1 (≈ 0.124 µM) | 0.1 (≈ 0.124 µM) | 0.1 (≈ 0.124 µM) | 0.1 (≈ 0.124 µM) | 0.1 (≈ 0.124 µM) | 0.25 (≈ 0.311 µM) | 32 (≈ 39.8 µM) | MIC [17]: 0.03 µg/mL (≈ 0.0373 µM); MIC [18]: 0.03 µg/mL (≈ 0.0373 µM); MIC [19]: 0.01 µg/mL (≈ 0.0124 µM); MIC [20]: 0.01 µg/mL (≈ 0.0124 µM); MIC [21]: 12.5 µg/mL (≈ 15.5 µM); MIC [22]: 0.01 µg/mL (≈ 0.0124 µM); MIC [23]: 0.1 µg/mL (≈ 0.124 µM)
2 | CC[C@H]1OC(=O)[C@H](C)C(=O)[C@H](C)[C@@H](O[C@@H]2O[C@H](C)C[C@H](N(C)C)[C@H]2O)[C@](C)(OC/C=C/c2cncc(-c3ccco3)c2)C[C@@H](C)C(=O)[C@H](C)[C@H]2NC(=O)O[C@@]21C [Example 50] | > 100 | 0.05 (≈ 0.0639 µM) | 50 (≈ 63.9 µM) | 25 (≈ 32 µM) | 0.39 (≈ 0.499 µM) | 2 (≈ 2.56 µM) | 0.1 (≈ 0.128 µM) | 0.01 (≈ 0.0128 µM) | 0.39 (≈ 0.499 µM) | 0.05 (≈ 0.0639 µM) | > 100 | > 100 | 0.02 (≈ 0.0256 µM) | 0.05 (≈ 0.0639 µM) | 0.02 (≈ 0.0256 µM) | 0.05 (≈ 0.0639 µM) | 0.1 (≈ 0.128 µM) | 0.05 (≈ 0.0639 µM) | 0.12 (≈ 0.153 µM) | 128 (≈ 164 µM) | MIC [17]: ≤ 0.004 µg/mL; MIC [18]: ≤ 0.004 µg/mL; MIC [19]: 0.01 µg/mL (≈ 0.0128 µM); MIC [20]: 0.01 µg/mL (≈ 0.0128 µM); MIC [21]: 12.5 µg/mL (≈ 16 µM); MIC [22]: 0.02 µg/mL (≈ 0.0256 µM); MIC [23]: 0.1 µg/mL (≈ 0.128 µM)
3 | CC[C@H]1OC(=O)[C@H](C)C(=O)[C@H](C)[C@@H](O[C@@H]2O[C@H](C)C[C@H](N(C)C)[C@H]2O)[C@](C)(OC/C=C/c2cnc(-c3cccs3)s2)C[C@@H](C)C(=O)[C@H](C)[C@H]2NC(=O)O[C@@]21C [Example 57] | > 100 | 0.05 (≈ 0.0622 µM) | 100 (≈ 124 µM) | 100 (≈ 124 µM) | 0.39 (≈ 0.485 µM) | 4 (≈ 4.97 µM) | 0.05 (≈ 0.0622 µM) | 0.02 (≈ 0.0249 µM) | 0.2 (≈ 0.249 µM) | 0.05 (≈ 0.0622 µM) | 100 (≈ 124 µM) | > 100 | 0.05 (≈ 0.0622 µM) | 0.1 (≈ 0.124 µM) | 0.1 (≈ 0.124 µM) | 0.05 (≈ 0.0622 µM) | 0.2 (≈ 0.249 µM) | 0.05 (≈ 0.0622 µM) | 0.25 (≈ 0.311 µM) | 0.5 (≈ 0.622 µM) | MIC [17]: ≤ 0.004 µg/mL; MIC [18]: ≤ 0.004 µg/mL; MIC [19]: 0.01 µg/mL (≈ 0.0124 µM); MIC [20]: 0.02 µg/mL (≈ 0.0249 µM); MIC [21]: 25 µg/mL (≈ 31.1 µM); MIC [22]: 0.01 µg/mL (≈ 0.0124 µM); MIC [23]: 0.1 µg/mL (≈ 0.124 µM)
4 | CC[C@H]1OC(=O)[C@H](C)C(=O)[C@H](C)[C@@H](O[C@@H]2O[C@H](C)C[C@H](N(C)C)[C@H]2O)[C@](C)(OC/C=C/c2cncc(-n3ccnc3)c2)C[C@@H](C)C(=O)[C@H](C)[C@H]2NC(=O)O[C@@]21C [Example 37] | > 100 | 0.05 (≈ 0.0639 µM) | 50 (≈ 63.9 µM) | 50 (≈ 63.9 µM) | 0.39 (≈ 0.499 µM) | 4 (≈ 5.12 µM) | 0.2 (≈ 0.256 µM) | 0.01 (≈ 0.0128 µM) | 3.1 (≈ 3.96 µM) | 0.1 (≈ 0.128 µM) | > 100 | > 100 | 0.1 (≈ 0.128 µM) | 0.1 (≈ 0.128 µM) | 0.1 (≈ 0.128 µM) | 0.1 (≈ 0.128 µM) | 0.2 (≈ 0.256 µM) | 0.1 (≈ 0.128 µM) | 2 (≈ 2.56 µM) | > 128 | MIC [17]: ≤ 0.004 µg/mL; MIC [18]: ≤ 0.004 µg/mL; MIC [19]: 0.02 µg/mL (≈ 0.0256 µM); MIC [20]: 0.01 µg/mL (≈ 0.0128 µM); MIC [21]: 25 µg/mL (≈ 32 µM); MIC [22]: 0.02 µg/mL (≈ 0.0256 µM); MIC [23]: 0.39 µg/mL (≈ 0.499 µM)
5 | CC[C@H]1OC(=O)[C@H](C)C(=O)[C@H](C)[C@@H](O[C@@H]2O[C@H](C)C[C@H](N(C)C)[C@H]2O)[C@](C)(OC/C=C/c2ccc(-c3cnc(N)s3)s2)C[C@@H](C)C(=O)[C@H](C)[C@H]2NC(=O)O[C@@]21C [Example 53] | > 100 | 0.05 (≈ 0.061 µM) | 25 (≈ 30.5 µM) | 50 (≈ 61 µM) | 0.2 (≈ 0.244 µM) | 8 (≈ 9.77 µM) | 0.1 (≈ 0.122 µM) | 0.01 (≈ 0.0122 µM) | 3.1 (≈ 3.78 µM) | 0.1 (≈ 0.122 µM) | > 100 | > 100 | 0.1 (≈ 0.122 µM) | 0.1 (≈ 0.122 µM) | 0.1 (≈ 0.122 µM) | 0.1 (≈ 0.122 µM) | 0.1 (≈ 0.122 µM) | 0.1 (≈ 0.122 µM) | 1 (≈ 1.22 µM) | 16 (≈ 19.5 µM) | MIC [17]: 0.03 µg/mL (≈ 0.0366 µM); MIC [18]: 0.03 µg/mL (≈ 0.0366 µM); MIC [19]: 0.01 µg/mL (≈ 0.0122 µM); MIC [20]: 0.01 µg/mL (≈ 0.0122 µM); MIC [21]: 12.5 µg/mL (≈ 15.3 µM); MIC [22]: ≤ 0.005 µg/mL; MIC [23]: 0.1 µg/mL (≈ 0.122 µM)
